One block for each molecule: values may come before it.
Key:
pooled human plasma [1] = assay: Prothrombin time in pooled human plasma; assay type: biochemical; details: 40 μM total plasma concentration; baseline 10.3 ± 0.1 s
pooled human plasma [2] = assay: Thrombin clotting time in pooled human plasma; assay type: biochemical; details: baseline 16.6 s
cynomolgus monkey plasma [3] = assay: In vitro PT in cynomolgus monkey plasma; assay type: biochemical; details: 40 μM, reagent not given
cynomolgus monkey plasma [4] = assay: Ecarin clotting time in cynomolgus monkey plasma; assay type: biochemical; details: 40 μM
[5] = test system: rabbit platelet-rich plasma; assay: In vitro platelet aggregation in hirudin-treated rabbit platelet-rich plasma; assay type: cell-based; details: for peak platelet aggregation response to ADP (10 µM): control 59 ± 1%; for peak platelet aggregation response to ADP (10 µM) / peak platelet aggregation response to collagen (10 µg/ml) / peak platelet aggregation response to arachidonic acid (250 µM): n = 4; for peak platelet aggregation response to collagen (10 µg/ml): control 66 ± 1%; for peak platelet aggregation response to arachidonic acid (250 µM): control 67 ± 1%
[6] = Pharmacokinetics in rabbits; details: rabbit, in vivo
[7] = test system: electrically mediated carotid arterial thrombosis; assay: Rabbit ECAT model, prevention of thrombosis; assay type: in vivo
[8] = Ex vivo coagulation assays; assay type: in vivo, rabbit
recombinant FXIa [9] = target: recombinant FXIa (Canis lupus familiaris, UniProt A0A8I3NYS2); details: dog recombinant FXIa
Chain of recombinant FXIa (Canis lupus familiaris, UniProt A0A8I3NYS2) (A0A8I3NYS2 389-626): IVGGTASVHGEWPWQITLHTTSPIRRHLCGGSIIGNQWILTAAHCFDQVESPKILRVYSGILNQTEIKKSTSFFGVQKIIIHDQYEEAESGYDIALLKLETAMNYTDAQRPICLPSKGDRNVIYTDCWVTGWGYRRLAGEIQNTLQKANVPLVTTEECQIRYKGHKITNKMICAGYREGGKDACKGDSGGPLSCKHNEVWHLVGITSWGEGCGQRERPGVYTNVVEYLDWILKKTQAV

recombinant FXIa [10] = target: recombinant FXIa (Rattus norvegicus, UniProt F7F105)
Chain of recombinant FXIa (Rattus norvegicus, UniProt F7F105) (F7F105 400-556): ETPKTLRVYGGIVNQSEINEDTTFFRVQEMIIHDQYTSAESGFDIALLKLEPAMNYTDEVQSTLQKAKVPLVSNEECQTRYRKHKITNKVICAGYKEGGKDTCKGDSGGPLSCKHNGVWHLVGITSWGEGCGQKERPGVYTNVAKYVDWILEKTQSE

recombinant FXIa [11] = target: recombinant FXIa (Macaca fascicularis, UniProt A0A2K5VVW4); assay: biochemical
Chain of recombinant FXIa (Macaca fascicularis, UniProt A0A2K5VVW4) (A0A2K5VVW4 388-625): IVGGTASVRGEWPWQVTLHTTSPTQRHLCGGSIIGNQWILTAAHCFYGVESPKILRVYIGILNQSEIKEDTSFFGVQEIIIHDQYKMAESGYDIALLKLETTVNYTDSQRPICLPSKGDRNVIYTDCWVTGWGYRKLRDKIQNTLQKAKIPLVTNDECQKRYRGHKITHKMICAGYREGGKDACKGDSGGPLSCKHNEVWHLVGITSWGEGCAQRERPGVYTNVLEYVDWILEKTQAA

recombinant FXIa [12] = target: recombinant FXIa (Oryctolagus cuniculus, UniProt G1SSQ6); assay: biochemical
Chain of recombinant FXIa (Oryctolagus cuniculus, UniProt G1SSQ6) (G1SSQ6 387-624): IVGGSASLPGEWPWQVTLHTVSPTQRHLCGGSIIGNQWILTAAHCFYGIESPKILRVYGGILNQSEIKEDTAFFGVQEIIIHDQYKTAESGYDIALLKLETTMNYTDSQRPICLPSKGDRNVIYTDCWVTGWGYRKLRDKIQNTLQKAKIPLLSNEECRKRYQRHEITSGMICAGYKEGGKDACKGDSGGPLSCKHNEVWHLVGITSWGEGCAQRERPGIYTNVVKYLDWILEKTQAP

[13] = test system: rabbit platelet-rich plasma; details: 3µM; cited from earlier work
[14] = ECAT rabbits, 120 min after start of infusion

concentration at 10 min ([6]; male, iv, 0.8 mg/kg): 2000 nM | concentration at 8 h ([6]; male, iv, 0.8 mg/kg): 100 nM | concentration at 1 h ([6]; po, 20 mg/kg): 2000 nM | concentration at 24 h ([6]; po, 20 mg/kg): 40 nM | Ki (recombinant FXIa [9]): 0.64 ± 0.03 nM | Ki (recombinant FXIa [10]): 490 ± 40 nM | Ki (recombinant FXIa [11]): 0.15 ± 0.01 nM | Ki (recombinant FXIa [12]): 0.38 ± 0.01 nM
Structure (SMILES): C[C@@H]1CCC[C@H](n2cnc(-c3cc(Cl)ccc3-n3cc(Cl)nn3)cc2=O)c2cc(ccn2)-c2c(cnn2C(F)F)NC1=O [milvexian]
PT (pooled human plasma [1]): 12.9 ± 0.4 s | TT (pooled human plasma [2]; 20 μM total plasma concentration): 24.8 s | TT (pooled human plasma [2]; 40 μM total plasma concentration): 28.4 s | PT increase over baseline (cynomolgus monkey plasma [3]): approximately 2 × | ecarin clotting time increase over baseline (cynomolgus monkey plasma [4]): 1.9 × | peak platelet aggregation response to ADP (10 µM) ([5]; milvexian 1 μM): 58 ± 2% | peak platelet aggregation response to collagen (10 µg/ml) ([5]; milvexian 1 μM): 67 ± 2% | peak platelet aggregation response to arachidonic acid (250 µM) ([5]; milvexian 1 μM): 65 ± 1% | peak platelet aggregation response to ADP (10 µM) ([5]; milvexian 10 μM): 55 ± 2% | peak platelet aggregation response to collagen (10 µg/ml) ([5]; milvexian 10 μM): 69 ± 1% | peak platelet aggregation response to arachidonic acid (250 µM) ([5]; milvexian 10 μM): 66 ± 2% | platelet aggregation to ADP, arachidonic acid, or collagen ([5]; result in words): did not alter | reduction of thrombus weight ([7]; 0.063 + 0.04 mg/kg+mg/kg/h IV, n = 6): 15 ± 10% | 20% maximal effective concentration (antithrombotic) ([7]; total plasma concentration, 95% CI 23–128): 55 nM | ex vivo PT [8, 14]: did not alter | ex vivo TT [8, 14]: did not alter | ex vivo APTT ([8]; ECAT rabbits, highest two doses, 120 min after start of infusion): elevated APTT significantly | prolongation of ex vivo APTT needed to achieve 50% thrombus weight reduction ([8]; rabbit ECAT): 1.6 fold

Structure (SMILES): Cc1noc(C)c1S(=O)(=O)N[C@@H](CNC(=O)C[C@H]1CC(c2ccc(C(=N)N)cc2)=NO1)C(=O)O [DMP802]
platelet aggregation responses to ADP, arachidonic acid, and collagen [13]: almost completely inhibited

Source: paper PMC9299130 (Journal of Thrombosis and Haemostasis, 2021)
